The test system of series [1] is CC(C)Oc1ccc(C(=O)N[C@H](CNC(=O)CN(C)C)Cc2ccc(-c3cn4cccc([C@H](C)O)c4n3)cc2)cc1Cl. To be noted: Canis lupus familiaris.
Description: Binding affinity to wild-type dog CENP-E assessed as Km in presence of ATP
Series [2] has the same test system. As to conditions: Canis lupus familiaris. The source holds these as a separate data set.
Description: Binding affinity to wild-type dog CENP-E assessed as catalytic constant
Series [3] shares this test system. As to conditions: Canis lupus familiaris. This is another data set of the same source.
Description: Binding affinity to wild-type dog CENP-E assessed as Km in presence of microtubule
Series [4] has as its target Centromere-associated protein E (Homo sapiens) (UniProt Q02224). As to the kind of experiment: Inhibition of CENP-E motor domain ATPase in human HCC1954 cells assessed as increase in cyclin B level by Western blot analysis. It is filed as cell-based. For orientation: Immunoblotting shows a protein as a band on a membrane.
Series [5] shares this target. Description: Inhibition of CENP-E motor domain ATPase in human HCC1954 cells assessed as increase in 4n DNA content at 325 nM measured for 144 hrs by flow cytometry. It is filed as cell-based. (In general: A flow cytometer gives signals particle by particle.)
In series [6] the test system is HCC1954. As to the kind of experiment: Induction of apoptosis in human HCC1954 cells assessed as increase in PARP cleavage measured for 145 hrs by Western blot analysis. It is filed as functional, cell-based.
The target in series [7] is Centromere-associated protein E (Homo sapiens) (UniProt Q02224). Description: Inhibition of CENP-E motor domain ATPase in human HCC1954 cells expressing GFP-histone 2B assessed as increase in mitotic index at 0.2 ug/ml measured for 5 days on every 15 mins by PI staining based analysis. It is filed as cell-based. As to conditions: dose 0.2 µg/ml, time 5.0 day.
Sequence of Centromere-associated protein E (Homo sapiens) (Q02224 whole entry, the tested form may be a part): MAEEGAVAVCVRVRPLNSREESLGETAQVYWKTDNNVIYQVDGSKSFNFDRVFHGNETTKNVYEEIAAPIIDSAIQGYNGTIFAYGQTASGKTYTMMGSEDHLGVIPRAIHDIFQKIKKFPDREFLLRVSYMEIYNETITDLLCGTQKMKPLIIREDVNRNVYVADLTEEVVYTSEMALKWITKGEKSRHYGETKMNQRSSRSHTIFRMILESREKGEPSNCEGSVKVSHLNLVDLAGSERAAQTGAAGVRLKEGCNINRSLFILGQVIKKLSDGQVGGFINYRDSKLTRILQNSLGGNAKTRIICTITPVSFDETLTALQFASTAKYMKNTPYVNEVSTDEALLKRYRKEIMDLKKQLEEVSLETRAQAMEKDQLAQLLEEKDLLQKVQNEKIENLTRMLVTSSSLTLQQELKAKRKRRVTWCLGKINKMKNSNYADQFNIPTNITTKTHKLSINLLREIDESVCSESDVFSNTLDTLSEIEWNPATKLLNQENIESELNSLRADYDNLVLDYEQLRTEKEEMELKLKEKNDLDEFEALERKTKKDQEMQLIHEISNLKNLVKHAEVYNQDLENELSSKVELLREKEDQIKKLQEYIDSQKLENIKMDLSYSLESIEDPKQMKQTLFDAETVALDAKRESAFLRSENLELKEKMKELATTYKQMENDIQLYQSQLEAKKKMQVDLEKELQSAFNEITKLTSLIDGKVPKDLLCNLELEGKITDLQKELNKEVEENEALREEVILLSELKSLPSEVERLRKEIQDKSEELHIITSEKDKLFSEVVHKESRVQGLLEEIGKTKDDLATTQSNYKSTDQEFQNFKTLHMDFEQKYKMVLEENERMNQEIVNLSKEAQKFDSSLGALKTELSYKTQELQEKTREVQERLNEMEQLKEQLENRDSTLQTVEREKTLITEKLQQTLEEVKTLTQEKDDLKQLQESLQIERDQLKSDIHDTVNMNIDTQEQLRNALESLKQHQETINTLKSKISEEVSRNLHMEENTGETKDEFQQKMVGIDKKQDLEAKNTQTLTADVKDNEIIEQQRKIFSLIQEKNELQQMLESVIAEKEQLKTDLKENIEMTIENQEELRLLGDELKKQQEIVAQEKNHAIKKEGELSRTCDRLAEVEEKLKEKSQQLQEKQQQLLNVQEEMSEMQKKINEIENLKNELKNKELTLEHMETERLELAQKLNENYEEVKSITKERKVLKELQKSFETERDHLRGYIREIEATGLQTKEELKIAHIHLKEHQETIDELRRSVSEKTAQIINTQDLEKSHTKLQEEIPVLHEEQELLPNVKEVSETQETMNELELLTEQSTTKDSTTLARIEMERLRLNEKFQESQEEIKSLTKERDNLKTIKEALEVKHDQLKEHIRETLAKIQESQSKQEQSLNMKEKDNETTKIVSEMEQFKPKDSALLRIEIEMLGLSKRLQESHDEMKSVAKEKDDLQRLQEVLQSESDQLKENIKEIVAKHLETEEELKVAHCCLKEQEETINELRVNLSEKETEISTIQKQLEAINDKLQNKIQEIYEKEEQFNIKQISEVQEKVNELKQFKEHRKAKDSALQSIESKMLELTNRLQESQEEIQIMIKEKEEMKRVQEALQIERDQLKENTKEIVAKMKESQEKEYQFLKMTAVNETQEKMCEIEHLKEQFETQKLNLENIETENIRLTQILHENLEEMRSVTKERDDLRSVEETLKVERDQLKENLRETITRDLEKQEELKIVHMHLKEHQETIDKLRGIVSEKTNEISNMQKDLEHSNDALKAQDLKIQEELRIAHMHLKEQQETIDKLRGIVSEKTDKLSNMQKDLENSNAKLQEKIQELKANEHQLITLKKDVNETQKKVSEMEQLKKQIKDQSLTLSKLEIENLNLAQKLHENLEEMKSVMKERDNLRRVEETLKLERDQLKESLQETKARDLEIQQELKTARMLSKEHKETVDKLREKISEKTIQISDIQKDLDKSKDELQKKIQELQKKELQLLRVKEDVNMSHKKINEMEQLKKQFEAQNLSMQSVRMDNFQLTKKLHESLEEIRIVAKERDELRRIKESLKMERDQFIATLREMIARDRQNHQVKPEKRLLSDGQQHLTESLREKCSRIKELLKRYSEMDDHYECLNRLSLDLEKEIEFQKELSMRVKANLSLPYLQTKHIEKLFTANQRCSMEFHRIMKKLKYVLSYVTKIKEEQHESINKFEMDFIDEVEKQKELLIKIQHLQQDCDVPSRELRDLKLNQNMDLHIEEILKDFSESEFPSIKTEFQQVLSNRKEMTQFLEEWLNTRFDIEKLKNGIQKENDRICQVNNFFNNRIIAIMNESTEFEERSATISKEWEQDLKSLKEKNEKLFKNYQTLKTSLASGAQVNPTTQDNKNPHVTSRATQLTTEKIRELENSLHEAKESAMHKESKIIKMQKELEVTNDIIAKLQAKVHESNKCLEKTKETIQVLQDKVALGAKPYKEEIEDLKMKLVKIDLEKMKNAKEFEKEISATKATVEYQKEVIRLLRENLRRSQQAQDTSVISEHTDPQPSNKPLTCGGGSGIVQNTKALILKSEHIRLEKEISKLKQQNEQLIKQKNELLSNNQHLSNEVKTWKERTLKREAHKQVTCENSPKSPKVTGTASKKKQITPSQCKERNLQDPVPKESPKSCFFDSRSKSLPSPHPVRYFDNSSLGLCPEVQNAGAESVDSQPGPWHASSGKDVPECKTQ
For series [8], the system named is SK-OV-3. Description: Induction of morphological change in human SK-OV-3 cells assessed as increase in mitotic cells with bipolar spindle formation of chromosomes at 50 nM measured for 24 to 32 hrs by microscopic analysis. To be noted: time 24-32 hrs. Format: functional, cell-based.
In series [9] the target is Centromere-associated protein E (Homo sapiens) (UniProt Q02224). Description: Inhibition of CENP-E motor domain ATPase in human HCC1954 cells assessed as increase in Ser10 phosphorylated histone H3 level by Western blot analysis. Format: cell-based.
Series [10] relates to HCC1954. Description: Induction of morphological change in human HCC1954 cells expressing GFP-histone 2B assessed as bipolar spindle formation of chromosomes at 0.2 ug/ml measured for 5 days on every 15 mins by PI staining based analysis. It is filed as functional, cell-based. As to conditions: dose 0.2 µg/ml, time 5.0 day.
For series [11], the target named is Centromere-associated protein E (Homo sapiens) (UniProt Q02224). Description: Uncompetitive-like binding affinity to C-terminal 6-his-tagged CENP-E (2 to 340 residues)(unknown origin) expressed in Escherichia coli BL21(DE3) in presence of ATP.
Series [12] has as its system COLO 205. As to the kind of experiment: Induction of morphological change in human COLO 205 cells xenografted in mouse assessed as appearance of mitotic figures in tumor at 125 mg/kg measured after 24 hrs of single administration by H and E staining based analysis. It is filed as functional, organism-based. (A xenograft is tissue or cells of one species grown in another, often human tumour cells in immunodeficient mice.)

Series [13] deals with COLO 205. As to the kind of experiment: Induction of morphological change in human COLO 205 cells xenografted in mouse assessed as appearance of scattered apoptotic bodies in tumor at 125 mg/kg measured after 24 hrs of single administration by H and E staining based analysis. Format: functional, organism-based.
Series [14] has as its system COLO 205. Description: Effect on cell cycle distribution in human COLO 205 cells xenografted in mouse assessed as increase in ratio of 4n to 2n nuclei measured after 24 hrs of single administration by flow cytometry. It is filed as functional, cell-based. As to conditions: dose <= 125.0 mg/kg.
The species named for series [15] is Homo sapiens. As to the kind of experiment: Binding affinity to human CENP-E T183A/K184T mutant assessed as ATPase activity.
In series [16] the target is Centromere-associated protein E (Homo sapiens) (UniProt Q02224).
Description: Binding affinity to C-terminal 6-his-tagged CENP-E (2 to 340 residues)(unknown origin) expressed in Escherichia coli BL21(DE3) assessed as compound dissociation by measuring t1/2
The species named for series [17] is Homo sapiens.
Description: Binding affinity to human CENP-E T183A/K184T mutant assessed as catalytic constant
Series [18] addresses Centromere protein E (Canis lupus familiaris) (UniProt A0A8P0P634). Description: Binding affinity to wild-type dog CENP-E assessed as ATPase activity.
The species named for series [19] is Homo sapiens. The source holds these as a separate data set.
Description: Binding affinity to human CENP-E T183A/K184T mutant assessed as Km in presence of ATP
Series [20] is filed under the species Homo sapiens. The source holds these as a separate data set.
Description: Binding affinity to human CENP-E T183A/K184T mutant assessed as Km in presence of microtubule
Series [21] relates to COLO 205. As to the kind of experiment: Antitumor activity against human COLO 205 cells xenografted in mouse assessed as reduction in tumor volume administered intraperitoneally three doses daily on 2 consecutive weeks. It is filed as functional, cell-based. As to conditions: dose 62.5-125 mg/kg, route ip, time 2.0 weeks.
Series [22] deals with Centromere-associated protein E (Homo sapiens) (UniProt Q02224). As to the kind of experiment: Binding affinity to C-terminal 6-his-tagged CENP-E (2 to 340 residues)(unknown origin) expressed in Escherichia coli BL21(DE3) photo-exposed for 30 mins by LC-MS analysis.
For series [23] the target is unchanged. As to the kind of experiment: Competitive-like binding affinity to C-terminal 6-his-tagged CENP-E (2 to 340 residues)(unknown origin) expressed in Escherichia coli BL21(DE3) in presence of ATP.
Series [24] has as its system CC(C)Oc1ccc(C(=O)N[C@H](CNC(=O)CN(C)C)Cc2ccc(-c3cn4cccc([C@H](C)O)c4n3)cc2)cc1Cl. To be noted: Mus musculus.
Description: Binding affinity to wild-type mouse CENP-E assessed as Km in presence of microtubule
Series [25] shares this test system. To be noted: Mus musculus. The source holds these as a separate data set.
Description: Binding affinity to wild-type mouse CENP-E assessed as Km in presence of ATP
The test system is the same in series [26]. To be noted: Mus musculus. This is another data set of the same source.
Description: Binding affinity to wild-type mouse CENP-E assessed as catalytic constant

A word on the Km: it is the concentration of substrate that gives half-maximal velocity. What is called kcat is the maximal rate divided by the concentration of active sites.

The source made the active and inactive calls. No cut-off for these calls is given here.

Sequence of Centromere protein E (Canis lupus familiaris) (A0A8P0P634 as listed by the source): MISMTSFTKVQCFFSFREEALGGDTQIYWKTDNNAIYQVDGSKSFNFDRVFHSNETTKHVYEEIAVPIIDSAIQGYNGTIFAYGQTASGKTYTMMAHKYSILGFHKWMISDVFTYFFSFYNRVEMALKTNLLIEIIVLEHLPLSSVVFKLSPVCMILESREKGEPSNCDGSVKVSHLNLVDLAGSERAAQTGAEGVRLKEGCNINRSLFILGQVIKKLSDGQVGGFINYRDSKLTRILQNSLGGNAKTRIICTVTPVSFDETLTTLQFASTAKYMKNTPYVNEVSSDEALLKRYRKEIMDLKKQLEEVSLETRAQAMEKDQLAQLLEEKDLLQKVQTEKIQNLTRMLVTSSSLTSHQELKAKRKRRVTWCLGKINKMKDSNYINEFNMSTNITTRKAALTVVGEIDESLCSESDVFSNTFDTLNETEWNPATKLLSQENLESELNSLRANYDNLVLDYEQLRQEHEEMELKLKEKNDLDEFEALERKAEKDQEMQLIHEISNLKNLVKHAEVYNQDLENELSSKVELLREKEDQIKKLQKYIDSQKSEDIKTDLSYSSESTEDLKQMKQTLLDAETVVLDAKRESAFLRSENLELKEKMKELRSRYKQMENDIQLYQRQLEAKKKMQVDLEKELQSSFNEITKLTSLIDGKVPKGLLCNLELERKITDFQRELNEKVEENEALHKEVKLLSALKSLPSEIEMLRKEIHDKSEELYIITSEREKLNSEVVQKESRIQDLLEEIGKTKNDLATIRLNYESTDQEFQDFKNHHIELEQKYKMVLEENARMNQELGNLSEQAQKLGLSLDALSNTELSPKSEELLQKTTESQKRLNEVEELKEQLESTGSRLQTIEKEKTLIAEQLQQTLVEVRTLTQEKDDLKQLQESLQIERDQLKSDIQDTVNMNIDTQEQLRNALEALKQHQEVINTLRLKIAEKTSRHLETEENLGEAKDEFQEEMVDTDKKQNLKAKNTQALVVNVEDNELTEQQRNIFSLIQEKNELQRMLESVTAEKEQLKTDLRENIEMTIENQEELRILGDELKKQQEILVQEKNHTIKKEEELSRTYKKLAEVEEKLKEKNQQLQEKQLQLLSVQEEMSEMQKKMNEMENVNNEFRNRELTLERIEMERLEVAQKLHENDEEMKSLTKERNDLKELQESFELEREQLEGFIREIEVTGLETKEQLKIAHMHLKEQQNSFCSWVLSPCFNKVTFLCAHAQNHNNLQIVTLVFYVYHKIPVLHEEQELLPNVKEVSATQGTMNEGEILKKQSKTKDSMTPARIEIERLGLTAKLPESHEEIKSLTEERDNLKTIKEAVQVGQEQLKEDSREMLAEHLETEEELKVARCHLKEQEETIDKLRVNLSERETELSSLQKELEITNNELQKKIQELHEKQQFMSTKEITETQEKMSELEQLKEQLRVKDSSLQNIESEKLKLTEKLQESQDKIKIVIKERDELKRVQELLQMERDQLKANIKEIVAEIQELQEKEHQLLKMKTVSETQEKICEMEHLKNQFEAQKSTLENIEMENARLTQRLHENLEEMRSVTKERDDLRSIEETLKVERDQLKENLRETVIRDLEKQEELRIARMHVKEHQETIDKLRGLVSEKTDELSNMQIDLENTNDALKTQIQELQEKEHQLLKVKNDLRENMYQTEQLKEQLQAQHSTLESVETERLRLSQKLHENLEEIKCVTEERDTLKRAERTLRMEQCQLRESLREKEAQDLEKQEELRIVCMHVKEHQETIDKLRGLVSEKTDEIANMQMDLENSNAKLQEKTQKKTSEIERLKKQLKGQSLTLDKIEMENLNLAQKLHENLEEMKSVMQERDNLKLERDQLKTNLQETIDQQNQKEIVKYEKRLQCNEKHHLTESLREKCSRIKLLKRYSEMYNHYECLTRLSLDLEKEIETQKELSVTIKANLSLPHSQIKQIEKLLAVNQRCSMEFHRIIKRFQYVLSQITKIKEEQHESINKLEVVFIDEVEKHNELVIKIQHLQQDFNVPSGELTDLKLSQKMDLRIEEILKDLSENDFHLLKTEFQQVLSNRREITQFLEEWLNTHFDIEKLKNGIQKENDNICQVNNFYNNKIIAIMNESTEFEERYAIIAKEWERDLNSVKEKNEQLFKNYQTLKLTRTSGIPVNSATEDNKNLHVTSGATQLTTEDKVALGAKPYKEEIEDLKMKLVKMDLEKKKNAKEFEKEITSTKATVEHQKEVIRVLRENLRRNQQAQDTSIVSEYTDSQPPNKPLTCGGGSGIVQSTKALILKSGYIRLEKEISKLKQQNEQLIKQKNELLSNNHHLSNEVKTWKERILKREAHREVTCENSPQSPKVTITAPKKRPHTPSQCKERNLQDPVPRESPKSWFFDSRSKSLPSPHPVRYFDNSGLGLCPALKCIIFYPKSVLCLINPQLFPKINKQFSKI

“Centromere protein E (Canis lupus familiaris), A0A8P0P634”: the Km turned out to be 34 µM in series [1] and 0.38 µM in series [3]. Also, in series [2], the kcat was found to be 11.1 s⁻¹.

Turning to `Cc1cccn2cc(-c3ccc(C[C@@H](CCO)NC(=O)c4ccc(OC(C)C)c(C#N)c4)cc3)nc12`, the inhibition entry in series [4], in series [5], in series [7] and in [9] was “Active” in each case. The result in [6], in [8] and in series [10] was Active. Further, in [11], the alphaKi was found to be 0.25 nM.

As to `CC(C)Oc1ccc(C(=O)N[C@H](CNC(=O)CN(C)C)Cc2ccc(-c3cn4cccc([C@H](C)O)c4n3)cc2)cc1Cl`, the result in series [12] and in series [13] was Active. Also, the Activity result in series [14] is “Dose-Dependent Effect”; in series [15] it was 0.06 s⁻¹; in [18], 0.32 s⁻¹; in series [21], “Dose-Dependent Effect”. The T1/2 in [16] was found to be 10.2 h. For the same compound, the turnover number (kcat) in series [17] amounted to 12.1 s⁻¹. Moreover, the Km in [19] was found to be 20 µM; in [20] it was 1.81 µM.

Consider `CNC(=O)C(Cc1ccc(C(=O)c2ccccc2)cc1)NC(=O)c1ccc(OC(C)C)c(Cl)c1` (stereo unspecified), for which, in series [22], the outcome was Active. Also, in series [23], the alphaKi is 8 nM.

Consider “Centromere-associated protein E (Mus musculus), Q6RT24”, for which the Michaelis constant (Km) in [24] is 0.55 µM; in series [25], 25 µM. Moreover, in series [26], the kcat worked out at 10.1 s⁻¹.

Values taken from ChEMBL document CHEMBL5705890, “Antitumor activity of an allosteric inhibitor of centromere-associated protein-E” (Proc Natl Acad Sci U S A, 2010).
